The source of these data is patent US6509163B1, “Methods of screening modulators of mammalian P2X7 purinergic receptors” (Glaxo Group Limited, priority 1997, dated 2003).

Assay [1] has as its target T1, h-rP2X7 (human 1-346, rat 347-595) (Homo sapiens, UniProt Q99572, A348T/A433Q/A445S/A505Q/C493A/C552S/D356N/D438E/D448H/D537E/D539E/E585Q/F350C/F353L/F525L/G559V/H366R/H491R/H521E/I367V/I459M/K464I/K501R/L354I/L516I/M434T/N361T/N413D/P443S/Q375E/R410W/R419K/R463Q/R514S/R544K/R576K/S359A/S390P/S407P/S481N/S490N/S540A/S584T/S593Y/T437L/T449S/T467V/T541I/V378A/V475D/V522A/V538G/W370S).
T1 construct: h-rP2X7 (human 1-346, rat 347-595); expressed in transfected cells; host or cells: HEK293 (transient)
T1 sequence (Q99572 1-595 A348T/F350C/F353L/L354I/D356N/S359A/N361T/H366R/I367V/W370S/Q375E/V378A/S390P/S407P/R410W/N413D/R419K/A433Q/M434T/T437L/D438E/P443S/A445S/D448H/T449S/I459M/R463Q/K464I/T467V/V475D/S481N/S490N/H491R/C493A/K501R/A505Q/R514S/L516I/H521E/V522A/F525L/D537E/V538G/D539E/S540A/T541I/R544K/C552S/G559V/R576K/S584T/E585Q/S593Y): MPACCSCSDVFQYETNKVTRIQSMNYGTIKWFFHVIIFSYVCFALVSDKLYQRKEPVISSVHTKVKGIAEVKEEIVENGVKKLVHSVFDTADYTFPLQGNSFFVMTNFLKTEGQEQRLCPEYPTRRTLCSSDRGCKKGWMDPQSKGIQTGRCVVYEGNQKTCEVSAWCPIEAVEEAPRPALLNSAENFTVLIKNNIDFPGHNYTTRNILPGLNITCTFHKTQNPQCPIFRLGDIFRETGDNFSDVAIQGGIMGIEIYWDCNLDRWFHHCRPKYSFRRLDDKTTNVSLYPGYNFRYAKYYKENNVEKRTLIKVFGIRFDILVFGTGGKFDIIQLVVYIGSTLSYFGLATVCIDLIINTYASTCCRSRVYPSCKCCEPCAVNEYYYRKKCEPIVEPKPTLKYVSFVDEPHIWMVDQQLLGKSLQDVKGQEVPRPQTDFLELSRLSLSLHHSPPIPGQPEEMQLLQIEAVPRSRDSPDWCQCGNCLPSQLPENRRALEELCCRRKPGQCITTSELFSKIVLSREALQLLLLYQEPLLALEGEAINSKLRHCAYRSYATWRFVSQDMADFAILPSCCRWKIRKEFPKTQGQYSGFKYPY
The assay is described as follows: Whole-cell recordings in HEK293 cells expressing chimeric h-rP2X7 receptors. Format: cell-based. The settings on record: low divalent concentrations, after removal of BzATP, n=10. From the text:
Chimeras. A silent restriction site (NheI) was introduced at the equivalent positions in the rat and human cDNAs using the Pfu mutagenesis kit (Stratagene) (T to G at 1069 in rP2X7; G to A at 1072 in hP2X7) . A NheI-XhoI fragment corresponding to 3′ extremity of each cDNA was then excised and subcloned in the opposite plasmid (i.e. human 3′ end into rat background). The resulting chimeras were h-rP2X7 (human 1-346, rat 347-595) and r-hP2X7 (rat 1-346, human 347-595) (FIG. 5). All constructions were sequenced on their entire coding region.
(§1) Cell culture. HEK293 cells were transiently transfected with cDNA (1 μg/ml) and lipofectin dissolved in Optimem (GIBCO) placed into petri dishes containing four coverslips onto which cells were plated at a density of about 8×10^4/coverslip. Cells were washed 5 h later and normal DMEM applied. Electrophysiological studies or dye uptake measurements were carried out 18-49 h later. For each set of transfections, parallel experiments were performed on HEK cells transfected with cDNA encoding both rP2X7 and hP2X7 receptors.
Electrophysiological experiments. Whole-cell recordings were made using the EPC9 patch-clamp amplifier and Pulse acquisition programs (HEKA, Lambrecht, Germany). Patch pipettes (5-7 MΩ) contained (mM) CsCl or NaCl 154, EGTA 10, HEPES 5. […]

The target of assay [2] is T2, hP2X7 receptor (Homo sapiens, UniProt Q99572).
T2 construct: a clone containing the complete open reading frame of the hP2X7 receptor was constructed; expressed in transfected cells; host or cells: HEK293 (transient), pcDNA3
T2 sequence (Q99572 1-595): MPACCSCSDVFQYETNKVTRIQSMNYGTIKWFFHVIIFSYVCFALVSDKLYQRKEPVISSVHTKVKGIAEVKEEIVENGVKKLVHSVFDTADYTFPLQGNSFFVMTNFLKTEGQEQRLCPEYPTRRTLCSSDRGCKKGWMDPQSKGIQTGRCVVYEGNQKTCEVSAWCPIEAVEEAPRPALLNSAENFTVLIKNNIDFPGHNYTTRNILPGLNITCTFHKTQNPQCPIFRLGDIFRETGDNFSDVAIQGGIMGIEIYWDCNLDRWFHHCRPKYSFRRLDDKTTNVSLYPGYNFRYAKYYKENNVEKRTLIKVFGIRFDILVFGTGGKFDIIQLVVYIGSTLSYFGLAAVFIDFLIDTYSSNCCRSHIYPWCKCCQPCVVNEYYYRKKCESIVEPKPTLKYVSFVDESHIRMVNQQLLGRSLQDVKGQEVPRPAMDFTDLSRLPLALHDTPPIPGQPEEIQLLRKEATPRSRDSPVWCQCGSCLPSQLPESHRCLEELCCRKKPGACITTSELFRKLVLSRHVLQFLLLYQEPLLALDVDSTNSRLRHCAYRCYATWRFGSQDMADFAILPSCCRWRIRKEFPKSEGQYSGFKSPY
The assay is described as follows: Whole-cell recordings in HEK293 cells transiently transfected with hP2X7 receptors (Example 3). Format: cell-based. On the procedure: as §1
Electrophysiological experiments. Whole-cell recordings were made using the EPC9 patch-clamp amplifier and Pulse acquisition programs (HEKA, Lambrecht, Germany). Patch pipettes (5-7 MΩ) contained (mM) CsCl or NaCl 154, EGTA 10, HEPES 5. The normal extracellular solution contained (mM) NaCg 147, KCl2, CaCl2 2, MgCl2 1, HEPES 10 and glucose 12, and the “low divalent” solution had no magnesium and 0.3 mM CaCl2. Agonists were delivered by U-tube delivery system; antagonists, when applied, were present in both superfusion and U-tube. Experiments were carried out at room temperature.

Consider `Nc1ncnc2c1ncn2[C@@H]1O[C@H](COP(=O)(O)OP(=O)(O)OP(=O)(O)O)[C@@H](OC(=O)c2ccc(C(=O)c3ccccc3)cc2)[C@H]1O` [BzATP, 3′-O-(4-benzoyl)benzoyl ATP], for which the “current measured at 30 s, of peak” value in assay [1] is 70±4. In assay [2], the “EC50 at hP2X7 relative to rP2X7 receptor (fold greater)” value was determined as 25 fold and the “potency to activate the receptor relative to ATP” value is on record as 10 fold. In assay [2] (300 μM BzATP, n=12), the “cation current induced by maximal concentration of BzATP” value is on record as 1777±342 pA. Also, the “current measured at 30 s, of the peak current” value in assay [2] (BzATP 300 μM, low extracellular divalent concentrations, n=16) is recorded as 18±2%.
